For one test, the target named is HRAS wild-type protein (Homo sapiens, UniProt P01112). The experiment in a line: Binding to HRAS by surface plasmon resonance (SPR), KD and KD ratio to KRAS. As to conditions: ratio of the KD value with respect to HRAS wild-type protein to the KD value with respect to KRAS. The method, boiled down: (§1)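 Each cycle, GDP-bound biotin-Avi RAS was captured (~100–300 RU), compound concentrations were injected low to high for 75 s each at 100 µL/min, then the chip was regenerated. Buffer: HBS pH 7.4, 10 mM MgCl2, 10 µM GDP, 1 mM DTT, 4% DMSO; 30°C. KD from a 1:1 binding model.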
(SPR reads the build-up and loss of mass on a sensor chip optically.)

Test [1] addresses GDP-bound NRAS wild-type protein (Homo sapiens, UniProt P01111). The test is described as follows: Binding to NRAS by surface plasmon resonance (SPR), KD and KD ratio to KRAS. As to conditions: ratio of the KD value with respect to GDP-bound NRAS wild-type protein to the KD value with respect to KRAS. The method, boiled down: as §1
Test [2] has as its system human lung cancer strain NCI-H441. It counts as cell-based. In a few lines: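 Signal came from […] measured per well once the reagent was added. Beforehand, cells were cultured at 37°C and 5% carbon dioxide on a compound series serially diluted in dimethyl sulfoxide.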

pIC50: −log10 of the molar value.

Sequence of GDP-bound NRAS wild-type protein (P01111 whole entry): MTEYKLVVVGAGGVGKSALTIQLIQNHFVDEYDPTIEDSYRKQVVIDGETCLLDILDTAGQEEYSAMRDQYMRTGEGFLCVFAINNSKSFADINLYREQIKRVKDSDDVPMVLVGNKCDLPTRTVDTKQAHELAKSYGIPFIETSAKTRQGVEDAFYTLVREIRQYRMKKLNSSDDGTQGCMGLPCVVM
Sequence of HRAS wild-type protein (P01112 whole entry): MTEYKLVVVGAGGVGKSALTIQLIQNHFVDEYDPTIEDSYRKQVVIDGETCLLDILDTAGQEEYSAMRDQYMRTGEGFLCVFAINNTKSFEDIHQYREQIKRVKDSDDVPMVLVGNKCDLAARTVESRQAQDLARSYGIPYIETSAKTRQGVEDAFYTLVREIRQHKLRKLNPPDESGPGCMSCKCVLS

By pIC50 is commonly meant the negative decadic logarithm of the IC50, by convention in mol/L. With `CCO[C@@H]1C[C@H]2C(=O)NC3(CCC3)C(=O)N(C)[C@@H](C3CCCC3)C(=O)N(C)[C@H](C(=O)N(C)C)CC(=O)N(C)[C@@H](CC)C(=O)N[C@@H]([C@@H](C)CC)C(=O)N(C)CC(=O)N(C)[C@H]3CCCCN(C3=O)[C@@H](Cc3ccc(C(F)(F)F)cc3)C(=O)N(C)CC(=O)N[C@@H](CCc3cc(F)c(C(F)(F)F)c(F)c3)C(=O)N2C1` [PP0693], the “HRAS /KRAS” value on HRAS wild-type protein was “C (A compound having a KD ratio of 0.1 or more and less than 3 is denoted as C)”. The “NRAS /KRAS” value in test [1] was “C (A compound having a KD ratio of 0.1 or more and less than 3 is denoted as C)”. This molecule showed a pIC50 in test [2] of 8.42.
On to `CCC[C@H]1C(=O)N[C@@H]([C@@H](C)CC)C(=O)N(C)CC(=O)N(C)[C@H]2CCCCN(C2=O)[C@@H](Cc2ccc(C(F)(F)F)cc2)C(=O)N(C)CC(=O)N[C@@H](CCc2cc(F)c(C(F)(F)F)c(F)c2)C(=O)N2C[C@H](OCC)C[C@H]2C(=O)NC2(CCC2)C(=O)N(C)[C@@H](C2CCCC2)C(=O)N(C)[C@H](C(=O)N(C)C)CC(=O)N1C` [PP0694], for which the “HRAS /KRAS” value at HRAS wild-type protein was “C (A compound having a KD ratio of 0.1 or more and less than 3 is denoted as C)”. Moreover, in test [1], the “NRAS /KRAS” value is “C (A compound having a KD ratio of 0.1 or more and less than 3 is denoted as C)”. Moreover, the pIC50 in test [2] is 8.46.
For the molecule `C=CC[C@H]1C(=O)N[C@@H]([C@@H](C)CC)C(=O)N(C)CC(=O)N(C)[C@H]2CCCCN(C2=O)[C@@H](Cc2ccc(C(F)(F)F)cc2)C(=O)N(C)CC(=O)N[C@@H](CCc2cc(F)c(C(F)(F)F)c(F)c2)C(=O)N2C[C@H](OCC)C[C@H]2C(=O)NC2(CCC2)C(=O)N(C)[C@@H](C2CCCC2)C(=O)N(C)[C@H](C(=O)N(C)C)CC(=O)N1C` [PP0695], the “HRAS /KRAS” value on HRAS wild-type protein was “C (A compound having a KD ratio of 0.1 or more and less than 3 is denoted as C)”. The “NRAS /KRAS” value in test [1] was “C (A compound having a KD ratio of 0.1 or more and less than 3 is denoted as C)”. In addition, in test [2], the pIC50 was 8.54.
As for `C#CC[C@H]1C(=O)N[C@@H]([C@@H](C)CC)C(=O)N(C)CC(=O)N(C)[C@H]2CCCCN(C2=O)[C@@H](Cc2ccc(C(F)(F)F)cc2)C(=O)N(C)CC(=O)N[C@@H](CCc2cc(F)c(C(F)(F)F)c(F)c2)C(=O)N2C[C@H](OCC)C[C@H]2C(=O)NC2(CCC2)C(=O)N(C)[C@@H](C2CCCC2)C(=O)N(C)[C@H](C(=O)N(C)C)CC(=O)N1C` [PP0696], at HRAS wild-type protein, the “HRAS /KRAS” value is “B (a compound having 3 or more and less than 10 is denoted as B)”. In addition, the “NRAS /KRAS” value in test [1] is “B (a compound having 3 or more and less than 10 is denoted as B)”. The pIC50 in test [2] was 8.48.
Regarding `CCO[C@@H]1C[C@H]2C(=O)NC3(CCC3)C(=O)N(C)[C@@H](C3CCCC3)C(=O)N(C)[C@H](C(=O)N(C)C)CC(=O)N(C)[C@@H](CC3CC3)C(=O)N[C@@H]([C@@H](C)CC)C(=O)N(C)CC(=O)N(C)[C@H]3CCCCN(C3=O)[C@@H](Cc3ccc(C(F)(F)F)cc3)C(=O)N(C)CC(=O)N[C@@H](CCc3cc(F)c(C(F)(F)F)c(F)c3)C(=O)N2C1` [PP0697], at HRAS wild-type protein, the “HRAS /KRAS” value was “C (A compound having a KD ratio of 0.1 or more and less than 3 is denoted as C)”. Also, the “NRAS /KRAS” value in test [1] was “C (A compound having a KD ratio of 0.1 or more and less than 3 is denoted as C)”. The same molecule gave a pIC50 in test [2] of 8.42.
For `CCO[C@@H]1C[C@H]2C(=O)NC3(CCC3)C(=O)N(C)[C@@H](C3CCCC3)C(=O)N(C)[C@H](C(=O)N(C)C)CC(=O)N(C)[C@@H](CC3CCC3)C(=O)N[C@@H]([C@@H](C)CC)C(=O)N(C)CC(=O)N(C)[C@H]3CCCCN(C3=O)[C@@H](Cc3ccc(C(F)(F)F)cc3)C(=O)N(C)CC(=O)N[C@@H](CCc3cc(F)c(C(F)(F)F)c(F)c3)C(=O)N2C1` [PP0698], on HRAS wild-type protein, the “HRAS /KRAS” value was “C (A compound having a KD ratio of 0.1 or more and less than 3 is denoted as C)”. Also, the “NRAS /KRAS” value in test [1] was “C (A compound having a KD ratio of 0.1 or more and less than 3 is denoted as C)”. Moreover, the pIC50 in test [2] is 8.39.
